Test results reported in publication PMC10113214 (Scientific Reports, 2023).

How the values were obtained:
[1] = system: full-thickness excisional dorsal skin wounds; test: Skin wound healing model in mice; format: in vivo, BALB/c mice
Protocol: Eight to ten-week-old BALB/c female mice were used for these experiments. All experimental procedures were approved by the Local Ethics Committee for Animal Experimentation in Bydgoszcz, Poland (Approval No. 49/2016). The study was conducted in compliance with the ARRIVE gudidelines. All animal handling methods were carried out in accordance with European Union Commission Recommendation of 18 June 2007 on guidelines for the accommodation and care of animals used for experimental and other scientific purposes. Before experiments, mice were randomized and divided into groups comprising six individuals. The mice were anaesthetized with inhaled 2–5% isoflurane. The skin on the dorsum was shaved and disinfected. After the skin was folded and raised cranially and caudally along the spine, the mouse was placed in a lateral position, and the folded skin was pierced with a 6.0 mm biopsy punch to make two through-and-through symmetrical wounds. Next, 10 µL of peptide hybrid hydrogel was applied onto each wound. Every gel was prepared in sterile conditions in biological safety cabinet, using sterile water to final concentration of 10 mg/ml (1%). Then the gels were incubated for 24 h allowing it to assemble. Control mice were treated with RADA16-I. The wounds were covered with a transparent Tegaderm TM dressing to protect the wound from outer environment of the cage and other animals. It was fastened with an adhesive plaster wrapped around the animal’s torso. The peptide hybrids were applied daily to the wounds for five consecutive days. The dressings were replaced daily in the first five days of the experiment and every second day until the end of the second week of the experiment. To measure the wound areas the wounds were photographed with a ruler placed next to the injury site. Wound areas were calculated using the computer-assisted image analysis program ImageJ[51].

[2] = system: human primary dermal fibroblasts; format: cell-based
Protocol: Skin samples were obtained from patients of the Oncological Surgery Clinic in the Medical University of Gdańsk. The procedure was approved by the Independent Bioethics Commission for Research of the Medical University of Gdańsk (NKBBN/387/2014) and written informed consent was obtained from patients prior to surgery. All experiments were performed in accordance with guidelines and regulations. The isolation of fibroblasts was performed by explant culture as previously described. Briefly, skin samples were cut into small pieces, and the epidermis was removed by dispase digestion. To allow cells to grow out from the tissue samples, the human dermis was placed in 6-well plates in DMEM-HG medium (Sigma Aldrich Co., cat. D6429) supplemented with 10% of FBS (fetal bovine serum, Sigma-Aldrich Co., F9665), 100 U/mL of penicillin and 100 μg/mL streptomycin, and placed under standard conditions (humidified atmosphere with 5% CO2 at 37 °C). The medium was changed every 2–3 days.
RADA peptides were dissolved in water at a concentration of 1.0%, placed in culture inserts (0.4 μm) in 24-well plates, and incubated for at least 1 h at 37 °C to allow gelation. […] After 3 days of incubation, cells were stained with carboxyfluorescein succinimidyl ester (CFSE) (10 μM) and propidium iodide (100 µM) for 3 min. and then analyzed by fluorescence microscopy to assess their viability.

[3] = system: 46BR.1N fibroblasts; test: LDH cytotoxicity assay, 46BR.1N; format: cell-based, human; details: 150 µg/ml, 48 h, 3 independent experiments, n = 12
Protocol: (§1) Human HaCaT keratinocytes (DKFZ, Heidelberg, Germany)[47],[48], the human dermal fibroblast 46BR.1N cell line (ECACC, Sigma Aldrich Co.) and human primary dermal fibroblasts used in this study were routinely cultured in culture flasks (growth surface area: 25 cm^2) in DMEM-HG medium supplemented with 10% fetal bovine serum, 100 U/mL penicillin and […] streptomycin under standard conditions.
(§2) Briefly, the HaCaT and 46BR.1N cells were seeded in 96-well plates at a density of 5000 per well. Cell stimulation with RADA derivatives was performed using a protocol described before[49],[50]. Both assays were performed according to the manufacturers’ instructions (XTT- Roche, Cat. No. 11465015001; LDH- Takara, Cat. No. MK401).

[4] = Circular dichroism, conformation and thermal stability of β-sheet; format: physicochemical; details: CD
Protocol: The molar ellipticity of peptides were registered on a Jasco J-815 spectrometer (JASCO, Easton, MD, USA). Solutions of peptide hybrids were prepared in water solution (10 mg/ml), incubated at 37 °C for 4 h and then diluted to a final concentration of 0.20 mg/ml. CD spectra measurements were performed at 25 °C, 30 °C, 35 °C, 40 °C, 45 °C, 50 °C, 55 °C and 60 °C, at 190–260 nm wavelength and at a scan speed of […]. The background of the solvent was subtracted. The results are presented as the relationship of mean residue molar ellipticity (MRME) [deg × cm^2 × dmol^−1] to wavelength [nm]. Measurements were performed in triplicate. In order to determine the peptides’ denaturation temperatures, the molar ellipticity rotatory angle at a fixed wavelength of 196 nm, [θ]196, was measured as a function of temperature (max 100 °C). CD temperature measurements were carried out up to a temperature of 100 °C. Above this temperature, the cure was extrapolated with GraphPad Prism 8 software using the 4PL curve fit function. The denaturation temperature was determined as the temperature at which the change in ellipticity (θ) was half complete.

[5] = Transmission electron microscopy of nanofibres; format: physicochemical; details: 1% gel in PBS diluted to 0.001%, uranyl acetate stain
Protocol: 1% gel solutions were prepared and incubated in PBS. The samples were then diluted to 0.001% concentration. A drop of solution was applied to a microcellulose membrane and stained with a 1.5% solution of uranyl acetate. The images were registered on a Tecnai Spirit BioTwin FEI Transmission Electron Microscope operating at 120 kV.

[6] = system: HaCaT keratinocytes; test: LDH cytotoxicity assay, HaCaT; format: cell-based, human; details: 150 µg/ml, 48 h, 3 independent experiments, n = 12
Protocol: as §1, §2

In the case of `CC(=O)N[C@@H](CCCNC(=N)N)C(=O)N[C@@H](C)C(=O)N[C@@H](CC(=O)O)C(=O)N[C@@H](C)C(=O)N[C@@H](CCCNC(=N)N)C(=O)N[C@@H](C)C(=O)N[C@@H](CC(=O)O)C(=O)N[C@@H](C)C(=O)N[C@@H](CCCNC(=N)N)C(=O)N[C@@H](C)C(=O)N[C@@H](CC(=O)O)C(=O)N[C@@H](C)C(=O)N[C@@H](CCCNC(=N)N)C(=O)N[C@@H](C)C(=O)N[C@@H](CC(=O)O)C(=O)N[C@@H](C)C(=O)NCC(=O)NCC(=O)NCC(=O)N[C@@H](C)C(=O)N[C@@H](C)C(=O)N1CCC[C@H]1C(=O)N[C@H](C(=O)NCC(=O)NCC(=O)NCC(=O)N[C@@H](CCCCN)C(=O)NCC(=O)N[C@@H](Cc1c[nH]cn1)C(=O)N[C@@H](CCCCN)C(N)=O)C(C)C` [RADA-KGHK, Ac-(Arg-Ala-Asp-Ala)4-Gly-Gly-Gly-Ala-Ala-Pro-Val-Gly-Gly-Gly-Lys-Gly-His-Lys-NH2], the “wound closure on day 7” value ([1]; BALB/c female mice, 6.0 mm punch dorsal wounds, 10 µL 1% hydrogel topically daily for five days, n = 6, SD) is reported as 44.4 ± 4.9%, the “wound healing compared to RADA16-I” value ([1]; BALB/c mice, 1% hydrogel topically, day 2 up to day 14) is reported as “Accelerated wound healing” and the “viability / dead cells on scaffold (CFSE / propidium iodide)” value [2] is reported as “most dead cells were observed”. The “cytotoxicity (LDH), slight effect” value [3] was “ca. 15%”, the “temperature of first disruption of the β-sheets” value ([4]; [θ]196 nm as function of temperature 4–100 °C, gel 10 mg/ml in water, 37 °C 4 h, diluted to 0.20 mg/ml, decrease of molar ellipticity) was ~61 °C and the “transition temperature (half β-conformation, half disordered)” value ([4]; [θ]196 nm vs temperature, 0.20 mg/ml in water, above 100 °C curve extrapolated, 4PL fit) was “about 92 °C”. For the same compound, the “fibre thickness (TEM)” value [5] was “about 3 nm” and the “cytotoxicity (LDH), slight effect” value [6] was “ca. 15%”.
